Where a SMILES comes first, the peptide text is derived from it.
Molecular target: HLA B*1503 (Homo sapiens, UniProt P01889, A329T/A93T/A95T/C349S/D201E/D98Y/E187L/E204Q/K202T/N87E/Q94N/R155S/R180L/S121R/S35A/V306I/V36M/Y140S/Y91S)
Assay: biochemical
Type: binding

Structure (SMILES)	IC50
CC[C@H](C)[C@H](N)C(=O)N[C@@H](CCCCN)C(=O)N[C@@H](CCC(=O)O)C(=O)N[C@@H](CC(N)=O)C(=O)N[C@@H](CO)C(=O)N[C@H](C(=O)N[C@@H](Cc1ccc(O)cc1)C(=O)N[C@@H](CO)C(=O)N[C@@H](Cc1ccccc1)C(=O)O)[C@@H](C)CC [3102.1146] (H-IKENSIYSF-OH)	1.5 nM
CC[C@H](C)[C@H](NC(=O)[C@H](CO)NC(=O)[C@H](CO)NC(=O)[C@H](CO)NC(=O)[C@H](Cc1ccc(O)cc1)NC(=O)[C@H](C)NC(=O)[C@H](CC(C)C)NC(=O)[C@@H](N)C(C)C)C(=O)N[C@@H](Cc1ccccc1)C(=O)O [3102.1150] (H-VLAYSSSIF-OH)	5.4 nM
CC[C@H](C)[C@H](N)C(=O)N[C@@H](Cc1c[nH]cn1)C(=O)N[C@H](C(=O)N1CCC[C@H]1C(=O)N[C@@H](CCC(N)=O)C(=O)N[C@@H](CO)C(=O)N[C@@H](CCC(N)=O)C(=O)N[C@@H](CC(C)C)C(=O)N[C@@H](Cc1ccccc1)C(=O)O)[C@@H](C)CC [3102.1155] (H-IHIPQSQLF-OH)	5.5 nM
CC[C@H](C)[C@H](NC(=O)[C@H](CO)NC(=O)[C@@H](N)Cc1ccccc1)C(=O)N[C@@H](CC(C)C)C(=O)N[C@@H](Cc1ccccc1)C(=O)N[C@@H](CO)C(=O)N[C@@H](CC(N)=O)C(=O)N[C@@H](CC(N)=O)C(=O)N[C@@H](Cc1ccccc1)C(=O)O [3102.1156] (H-FSILFSNNF-OH)	30 nM
CC[C@H](C)[C@H](N)C(=O)N[C@@H](CCC(N)=O)C(=O)N[C@@H](Cc1ccccc1)C(=O)N[C@@H](CCSC)C(=O)N[C@@H](Cc1c[nH]cn1)C(=O)N[C@@H](CCC(=O)O)C(=O)N[C@@H](CCC(N)=O)C(=O)NCC(=O)N[C@@H](Cc1ccc(O)cc1)C(=O)O [3102.1159] (H-IQFMHEQGY-OH)	3.7 nM
CSCC[C@H](NC(=O)[C@@H](N)[C@@H](C)O)C(=O)N[C@H](C(=O)N[C@@H](CC(N)=O)C(=O)N[C@@H](CO)C(=O)N[C@@H](CC(C)C)C(=O)N[C@H](C(=O)N[C@@H](Cc1ccc(O)cc1)C(=O)N[C@@H](Cc1ccccc1)C(=O)O)[C@@H](C)O)C(C)C [3102.1160] (H-TMVNSLTYF-OH)	0.13 nM
CC(C)C[C@H](NC(=O)[C@@H](N)CCCCN)C(=O)N[C@H](C(=O)N[C@@H](CO)C(=O)N[C@H](C(=O)N[C@@H](CCC(=O)O)C(=O)N[C@H](C(=O)N[C@@H](CO)C(=O)N[C@@H](Cc1ccccc1)C(=O)O)[C@@H](C)O)[C@@H](C)O)[C@@H](C)O [3102.1165] (H-KLTSTETSF-OH)	25 nM
CC[C@H](C)[C@H](NC(=O)[C@@H](NC(=O)[C@H](C)NC(=O)[C@H](CS)NC(=O)[C@H](CCCNC(=N)N)NC(=O)[C@@H](NC(=O)[C@@H](N)Cc1ccccc1)[C@@H](C)O)C(C)C)C(=O)N1CCC[C@H]1C(=O)N[C@@H](Cc1ccccc1)C(=O)O [3102.1166] (H-FTRCAVIPF-OH)	5.4 nM
CC(C)C[C@H](NC(=O)[C@H](Cc1c[nH]c2ccccc12)NC(=O)[C@H](CCCCN)NC(=O)[C@H](C)NC(=O)[C@H](CCCCN)NC(=O)[C@@H](N)Cc1ccccc1)C(=O)N[C@H](C(=O)N1CCC[C@H]1C(=O)N[C@@H](Cc1ccccc1)C(=O)O)[C@@H](C)O [3102.1174] (H-FKAKWLTPF-OH)	0.073 nM
NCCCC[C@H](NC(=O)[C@H](CC(=O)O)NC(=O)[C@H](CC(N)=O)NC(=O)[C@H](CC(N)=O)NC(=O)[C@H](Cc1ccc(O)cc1)NC(=O)[C@H](CCCCN)NC(=O)[C@@H](N)CCCCN)C(=O)N[C@@H](CO)C(=O)N[C@@H](Cc1ccccc1)C(=O)O [3102.1179] (H-KKYNNDKSF-OH)	0.078 nM
CC[C@H](C)[C@H](N)C(=O)N[C@@H](CCC(N)=O)C(=O)N[C@@H](Cc1c[nH]cn1)C(=O)N[C@@H](CC(N)=O)C(=O)N[C@@H](Cc1ccccc1)C(=O)N[C@H](C(=O)N[C@@H](CCC(N)=O)C(=O)N[C@H](C(=O)N[C@@H](C)C(=O)O)[C@@H](C)CC)[C@@H](C)O [3102.1181] (H-IQHNFTQIA-OH)	0.25 nM
CSCC[C@H](NC(=O)[C@H](C)NC(=O)[C@H](CCCCN)NC(=O)[C@@H](N)Cc1ccccc1)C(=O)N[C@@H](Cc1c[nH]c2ccccc12)C(=O)N[C@@H](CCCCN)C(=O)N[C@@H](Cc1ccc(O)cc1)C(=O)N1CCC[C@H]1C(=O)N[C@@H](Cc1ccccc1)C(=O)O [3102.1182] (H-FKAMWKYPF-OH)	0.11 nM
CSCC[C@H](NC(=O)[C@@H](N)CCSC)C(=O)N[C@H](C(=O)N[C@@H](CO)C(=O)N[C@H](C(=O)N[C@@H](CCC(=O)O)C(=O)N[C@@H](CC(N)=O)C(=O)N[C@@H](CC(N)=O)C(=O)N[C@@H](CC(C)C)C(=O)O)[C@@H](C)O)C(C)C [3102.1183] (H-MMVSTENNL-OH)	11 nM
CSCC[C@H](NC(=O)[C@H](CO)NC(=O)[C@H](Cc1ccccc1)NC(=O)[C@H](CC(N)=O)NC(=O)[C@@H](NC(=O)[C@H](CCSC)NC(=O)[C@@H](N)Cc1ccccc1)[C@@H](C)O)C(=O)N[C@H](C(=O)N[C@@H](Cc1ccc(O)cc1)C(=O)O)C(C)C [3102.1186] (H-FMTNFSMVY-OH)	2.3 nM
CC[C@H](C)[C@H](NC(=O)[C@H](Cc1c[nH]cn1)NC(=O)[C@@H](NC(=O)[C@H](Cc1ccc(O)cc1)NC(=O)[C@H](CCC(N)=O)NC(=O)[C@@H](N)CC(C)C)C(C)C)C(=O)N[C@@H](CC(N)=O)C(=O)N[C@@H](CCC(=O)O)C(=O)N[C@@H](CC(C)C)C(=O)O [3102.1187] (H-LQYVHINEL-OH)	3.7 nM
CSCC[C@H](NC(=O)[C@@H](N)CCCCN)C(=O)N[C@H](C(=O)N[C@@H](CCCNC(=N)N)C(=O)N[C@H](C(=O)N[C@@H](Cc1ccccc1)C(=O)N[C@@H](CC(N)=O)C(=O)N[C@@H](CCCCN)C(=O)N[C@@H](Cc1ccccc1)C(=O)O)C(C)C)[C@@H](C)O [3102.1188] (H-KMTRVFNKF-OH)	0.43 nM
CC(C)C[C@H](NC(=O)[C@H](CC(C)C)NC(=O)[C@@H](NC(=O)[C@H](CO)NC(=O)[C@H](CO)NC(=O)[C@H](CCCCN)NC(=O)[C@@H](N)CCCCN)[C@@H](C)O)C(=O)N[C@H](C(=O)N[C@@H](Cc1ccccc1)C(=O)O)[C@@H](C)O [3102.1189] (H-KKSSTLLTF-OH)	0.36 nM
CC(C)[C@H](NC(=O)[C@@H](NC(=O)[C@H](CC(=O)O)NC(=O)[C@H](CO)NC(=O)[C@H](CCC(N)=O)NC(=O)[C@H](CO)NC(=O)[C@H](CCCCN)NC(=O)[C@H](C)N)[C@@H](C)O)C(=O)N[C@@H](Cc1ccccc1)C(=O)O [3102.1191] (H-AKSQSDTVF-OH)	0.16 nM
CC[C@H](C)[C@H](NC(=O)[C@H](Cc1ccc(O)cc1)NC(=O)[C@H](CO)NC(=O)[C@@H]1CCCN1C(=O)[C@H](Cc1ccc(O)cc1)NC(=O)[C@H](CCSC)NC(=O)[C@@H](N)CO)C(=O)N[C@@H](CCC(=O)O)C(=O)N[C@@H](Cc1ccccc1)C(=O)O [3102.1196] (H-SMYPSYIEF-OH)	0.11 nM
CC[C@H](C)[C@H](N)C(=O)N[C@@H](CCCCN)C(=O)N[C@@H](Cc1ccccc1)C(=O)N[C@@H](C)C(=O)N[C@@H](C)C(=O)NCC(=O)N[C@H](C(=O)N[C@H](C(=O)N[C@H](C(=O)O)[C@@H](C)CC)[C@@H](C)CC)[C@@H](C)CC [3102.1198] (H-IKFAAGIII-OH)	16 nM
CC[C@H](C)[C@H](NC(=O)[C@@H](NC(=O)[C@H](Cc1ccccc1)NC(=O)[C@H](CCSC)NC(=O)[C@@H](NC(=O)[C@H](CCCCN)NC(=O)[C@@H](N)[C@@H](C)O)C(C)C)C(C)C)C(=O)N[C@@H](CCCNC(=N)N)C(=O)N[C@@H](Cc1ccccc1)C(=O)O [3102.1199] (H-TKVMFVIRF-OH)	31 nM
CC[C@H](C)[C@H](NC(=O)[C@H](CCCCN)NC(=O)[C@@H](N)CCSC)C(=O)N[C@H](C(=O)N[C@@H](CCCNC(=N)N)C(=O)N1CCC[C@H]1C(=O)N[C@@H](CCCNC(=N)N)C(=O)N[C@@H](Cc1c[nH]cn1)C(=O)N[C@@H](Cc1ccccc1)C(=O)O)[C@@H](C)O [3102.1200] (H-MKITRPRHF-OH)	1 nM
CC[C@H](C)[C@H](N)C(=O)N[C@@H](CCC(=O)O)C(=O)N[C@H](C(=O)N[C@@H](CO)C(=O)N[C@@H](CO)C(=O)N[C@@H](CC(=O)O)C(=O)N[C@H](C(=O)N[C@@H](CO)C(=O)N[C@@H](Cc1ccccc1)C(=O)O)[C@@H](C)CC)C(C)C [3102.1201] (H-IEVSSDISF-OH)	9.7 nM
CC[C@H](C)[C@H](NC(=O)[C@H](Cc1c[nH]cn1)NC(=O)[C@H](CC(N)=O)NC(=O)[C@H](CCCCN)NC(=O)[C@@H](N)CCCNC(=N)N)C(=O)N[C@@H](Cc1ccc(O)cc1)C(=O)N[C@@H](CC(N)=O)C(=O)N[C@@H](CO)C(=O)N[C@@H](Cc1ccccc1)C(=O)O [3102.1203] (H-RKNHIYNSF-OH)	0.13 nM
CC(C)C[C@H](NC(=O)[C@@H](N)Cc1ccccc1)C(=O)N[C@@H](CO)C(=O)N[C@@H](CC(N)=O)C(=O)N[C@@H](CS)C(=O)N[C@@H](CCC(=O)O)C(=O)N[C@@H](CCCCN)C(=O)N[C@@H](CCC(N)=O)C(=O)N[C@@H](Cc1ccccc1)C(=O)O [3102.1206] (H-FLSNCEKQF-OH)	21 nM
CC[C@H](C)[C@H](NC(=O)[C@H](CO)NC(=O)[C@@H](NC(=O)[C@H](Cc1ccccc1)NC(=O)CNC(=O)[C@@H](NC(=O)[C@@H](NC(=O)[C@H](CCCCN)NC(=O)[C@@H](N)CCCCN)C(C)C)[C@@H](C)CC)C(C)C)C(=O)O [3102.1208] (H-KKVIGFVSI-OH)	7.5 nM
CC[C@H](C)[C@H](N)C(=O)N[C@@H](CCC(N)=O)C(=O)N[C@@H](CCCNC(=N)N)C(=O)N[C@H](C(=O)N[C@@H](Cc1ccc(O)cc1)C(=O)N[C@@H](CO)C(=O)N[C@@H](CO)C(=O)N[C@@H](CO)C(=O)N[C@H](C(=O)O)[C@@H](C)CC)[C@@H](C)O [3102.1209] (H-IQRTYSSSI-OH)	0.83 nM
CSCC[C@H](NC(=O)[C@H](CCSC)NC(=O)[C@H](CCC(=O)O)NC(=O)[C@H](C)N)C(=O)N[C@@H](C)C(=O)N1CCC[C@H]1C(=O)N[C@@H](CO)C(=O)N[C@@H](CCSC)C(=O)N[C@@H](Cc1ccccc1)C(=O)O [3102.1211] (H-AEMMAPSMF-OH)	17 nM
CC(C)C[C@H](N)C(=O)N[C@@H](CCC(=O)O)C(=O)N[C@@H](Cc1ccccc1)C(=O)N[C@@H](CC(N)=O)C(=O)N[C@H](C(=O)N1CCC[C@H]1C(=O)N[C@@H](Cc1ccccc1)C(=O)N[C@H](C(=O)N[C@@H](Cc1ccccc1)C(=O)O)C(C)C)[C@@H](C)O [3102.1212] (H-LEFNTPFVF-OH)	10 nM

Reference: PMC2248166, “Quantitative peptide binding motifs for 19 human and mouse MHC class I molecules derived using positional scanning combinatorial peptide libraries” (Immunome Research, 2008)
